Test results: US11390631B1, “Benzodiazepine derivatives as RSV inhibitors” (priority 2015, dated 2022)
Read-outs that look alike come from different tables or passages of the source.

Assays:
[1] = test system: Human RSV-A (“Long” strain); experiment: RSV-A assay: inhibition of cytopathic effect in Hep-2 cells, ATPlite readout; format: cell-based, Human respiratory syncytial virus (HRSV); settings: read-out: Human RSV-A (“Long” strain) EC50
In short: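 Hep-2 cells (8,000/well) were infected with RSV-A Long at MOI 0.1 alongside duplicate 2-fold compound dilutions. After 5 days, cell viability was read by ATPlite luminescence to give EC50. CC50 came from a parallel plate without virus.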

[2] = Cytotoxicity on parallel plate without virus, ATPlite readout; format: cell-based; settings: human, Hep-2 cells (no virus), Hep-2 cells without virus, 5-day incubation
Method: Following extensive parameter testing, the final assay is run as follows: Hep-2 cells are seeded into the inner 60 wells of a 96-well plate at 8,000 cells per well in a volume of 50 μL using Growth Media (DMEM without phenol red, 1% L-Glut, 1% Penn/Strep, 1% nonessential amino acids, 10% heat-inactivated FBS). 2-fold serial dilutions of control and test compounds are added to the wells in duplicate in a total volume of 25 μL. Viral stock is then added to the wells at a multiplicity of infection (MOI) of 0.1 in a volume of 25 μL, bringing the total volume of each well to 100 μL. The MOI is calculated using the PFU/mL, or TCID50 if unavailable. Each 96-well plate has a control column of 6 wells with cells and virus but no compound (negative control, max CPE), a column with cells but no compound or virus (positive control, minimum CPE), and a column with no cells or virus or compound (background plate/reagent control). The control wells with cells but no virus are given an additional 25 uL of growth media containing an equal quantity of sucrose as those wells receiving the viral stock in order to keep consistent in media and volume conditions. The outer wells of the plate are filled with 125 μL of moat media (DMEM, 1% Penn/Strep) to act as a thermal and evaporative moat around the test wells. Following a 5-day incubation period, the plates are read using ATPlite (50 uL added per well), which quantifies the amount of ATP (a measure of cell health) present in each well. Assay plates are read using the Envision luminometer. In parallel, cytotoxicity is examined on an additional 96-well plate treated in an identical manner, but substituting the 25 μL of viral stock for 25 μL of growth media. […] EC50 ranges are as follows: A<0.4 μM; B 0.4-0.8 μM; C>0.8 μM and CC50 ranges are as follows: A>50 μM; B 10-50 μM; C<10 μM.

[3] = human respiratory syncytial virus, HEp-2, 120 h
[4] = Hep-2 cells, MOI 0.1, 5-day incubation, ATPlite

SMILES | EC50 [1, 3] [nM] | CC50 at 5 days [2] [nM] | EC50 [1, 4] [nM]
COCCOc1cccc(-c2nnc(NC3N=C(c4ccccc4)c4ccccc4NC3=O)o2)c1 (centres unmarked) [Example 1] | > 800 | > 50000 | 
O=C1Nc2ccccc2C(c2ccccc2)=NC1Nc1nnc(-c2ccccc2)o1 (centres unmarked) [Example 2] | > 800 | > 50000 | 
O=C1Nc2ccccc2C(c2ccccc2)=NC1Nc1nnc(-c2cccc(F)c2)o1 (centres unmarked) [Example 3] | > 800 | > 50000 | 
COc1cccc(-c2nnc(NC3N=C(c4ccccc4)c4ccccc4NC3=O)o2)c1 (centres unmarked) [Example 4] | > 800 | > 50000 | 
O=C1Nc2ccccc2C(c2ccccc2)=NC1Nc1nnc(C2CC2)o1 (centres unmarked) [Example 5] | > 800 | > 50000 | 
O=C1Nc2ccccc2C(c2ccccc2)=NC1Nc1nnc(-c2ccccc2F)o1 (centres unmarked) [Example 6] | > 800 | > 50000 | 
O=C1Nc2ccccc2C(c2ccccc2)=N[C@H]1Nc1nnc(-c2ccc(F)cc2)o1 [Example 7b] | > 800 | 10000 to 50000 | 
COc1ccc(-c2nnc(NC3N=C(c4ccccc4)c4ccccc4NC3=O)o2)cc1 (centres unmarked) [Example 8] | > 800 | > 50000 | 
COc1ccccc1-c1nnc(NC2N=C(c3ccccc3)c3ccccc3NC2=O)o1 (centres unmarked) [Example 9] | > 800 | > 50000 | 
O=C1Nc2ccccc2C(c2ccccc2)=N[C@@H]1Nc1nnc(-c2ccco2)o1 [Example 10a] | 400 to 800 | > 50000 | 
O=C1Nc2ccccc2C(c2ccccc2)=N[C@H]1Nc1nnc(-c2ccco2)o1 [Example 10b] | > 800 | < 10000 | 
O=C1Nc2ccccc2C(c2ccccc2)=NC1Nc1nnc(-c2ccccn2)o1 (centres unmarked) [Example 11] | 400 to 800 | > 50000 | 
N#Cc1ccc(-c2nnc(NC3N=C(c4ccccc4)c4ccccc4NC3=O)o2)cc1 (centres unmarked) [Example 12] | 400 to 800 | > 50000 | 
O=C1Nc2ccccc2C(c2ccccc2)=NC1Nc1nnc(-c2ccc(Cl)cc2)o1 (centres unmarked) [Example 13] | < 400 | > 50000 | 
COc1cc(-c2nnc(NC3N=C(c4ccccc4)c4ccccc4NC3=O)o2)ccc1F (centres unmarked) [Example 14] | < 400 | 10000 to 50000 | 
CC(C)Oc1cccc(-c2nnc(NC3N=C(c4ccccc4)c4ccccc4NC3=O)o2)c1 (centres unmarked) [Example 15] | 400 to 800 | > 50000 | 
O=C1Nc2ccccc2C(c2ccccc2)=NC1Nc1nnc(-c2ccc3ccccc3c2)o1 (centres unmarked) [Example 16] | 400 to 800 | > 50000 | 
O=C1Nc2ccccc2C(c2ccccc2)=NC1Nc1nnc(-c2cccc3ccccc23)o1 (centres unmarked) [Example 17] | > 800 | > 50000 | 
Cc1nnc(NC2N=C(c3ccccc3)c3ccccc3NC2=O)o1 (centres unmarked) [Example 18] | > 800 | > 50000 | 

SMILES | EC50 [1, 3] [nM] | CC50 at 5 days [2] [nM] | EC50 [1, 4] [nM]
Cc1ccc(-c2nnc(NC3N=C(c4ccccc4)c4ccccc4NC3=O)o2)s1 (centres unmarked) [Example 19] | > 800 | > 50000 | 
O=C1Nc2ccccc2C(c2ccccc2)=NC1Nc1nnc(-c2ccc(Cl)o2)o1 (centres unmarked) [Example 20] | > 800 | > 50000 | 
O=C1Nc2ccccc2C(c2ccccc2)=NC1Nc1nnc(C2CCOCC2)o1 (centres unmarked) [Example 21] | > 800 | > 50000 | 
O=C1Nc2ccccc2C(c2ccccc2)=NC1Nc1nnc(Cc2ccccc2)o1 (centres unmarked) [Example 22] | > 800 | > 50000 | 
O=C1Nc2ccccc2C(c2ccccc2)=NC1Nc1nnc(-c2ccc(F)cn2)o1 (centres unmarked) [Example 23] | > 800 | > 50000 | 
O=C1Nc2ccccc2C(c2ccccc2)=NC1Nc1nnc(-c2ccc(C(F)(F)F)cn2)o1 (centres unmarked) [Example 25] | > 800 | > 50000 | 
Cc1cccc(-c2nnc(NC3N=C(c4ccccc4)c4ccccc4NC3=O)o2)n1 (centres unmarked) [Example 26] | > 800 | > 50000 | 
CS(=O)(=O)c1ccc(-c2nnc(NC3N=C(c4ccccc4)c4ccccc4NC3=O)o2)cc1 (centres unmarked) [Example 27] | > 800 | > 50000 | 
O=C1Nc2ccccc2C(c2ccccc2)=NC1Nc1nnc(-c2ccc(C(F)(F)F)cc2)o1 (centres unmarked) [Example 28] | > 800 | > 50000 | 
O=C1Nc2ccccc2C(c2ccccc2)=NC1Nc1nnc(-c2cccc(C(F)(F)F)c2)o1 (centres unmarked) [Example 29] | > 800 | > 50000 | 
O=C1Nc2ccccc2C(c2ccccc2)=NC1Nc1nnc(-c2ccc(OC(F)(F)F)cc2)o1 (centres unmarked) [Example 30] | > 800 | > 50000 | 
NS(=O)(=O)c1ccc(-c2nnc(NC3N=C(c4ccccc4)c4ccccc4NC3=O)o2)cc1 (centres unmarked) [Example 31] | 400 to 800 | > 50000 | 
N#Cc1cc(-c2nnc(NC3N=C(c4ccccc4)c4ccccc4NC3=O)o2)ccc1F (centres unmarked) [Example 32] | 400 to 800 | > 50000 | 
N#Cc1ccc(-c2nnc(NC3N=C(c4ccccc4)c4ccccc4NC3=O)o2)cc1F (centres unmarked) [Example 33] | > 800 | > 50000 | 
Cc1cc(-c2nnc(NC3N=C(c4ccccc4)c4ccccc4NC3=O)o2)ccc1C#N (centres unmarked) [Example 34] | 400 to 800 | > 50000 | 
N#Cc1cccc(-c2nnc(NC3N=C(c4ccccc4)c4ccccc4NC3=O)o2)c1 (centres unmarked) [Example 35] | > 800 | > 50000 | 
O=C1Nc2ccccc2C(c2ccccc2)=NC1Nc1nnc(-c2ccc(-n3cccn3)cc2)o1 (centres unmarked) [Example 36] | 400 to 800 | 10000 to 50000 | 
O=C1Nc2ccccc2C(c2ccccc2)=NC1Nc1nnc(-c2cccnc2)o1 (centres unmarked) [Example 37] | > 800 | > 50000 | 
N#Cc1cc(-c2nnc(NC3N=C(c4ccccc4)c4ccccc4NC3=O)o2)ccn1 (centres unmarked) [Example 38] | > 800 | > 50000 | 

SMILES | EC50 [1, 3] [nM] | CC50 at 5 days [2] [nM] | EC50 [1, 4] [nM]
O=C1Nc2ccccc2C(c2ccccc2)=NC1Nc1nnc(-c2ccc(=O)[nH]c2)o1 (centres unmarked) [Example 39] | > 800 | > 50000 | 
O=C1Nc2ccccc2C(c2ccccc2)=NC1Nc1nnc(-c2cc[nH]c(=O)c2)o1 (centres unmarked) [Example 40] | > 800 | > 50000 | 
O=C1Nc2ccccc2C(c2ccccc2)=NC1Nc1nnc(-c2ccc3nc[nH]c3c2)o1 (centres unmarked) [Example 41] | > 800 | > 50000 | 
O=C1Nc2ccccc2C(c2ccccc2)=N[C@@H]1Nc1nnc(-c2ncc(C(F)(F)F)cc2N[C@H]2CCOC2)o1 [Example 470] | > 800 |  | 
O=C1Nc2ccccc2C(c2ccccc2)=N[C@@H]1Nc1nnc(-c2ccsc2N2CCOCC2)o1 [Example 471] | < 400 |  | 
COCCNc1sccc1-c1nnc(N[C@H]2N=C(c3ccccc3)c3ccccc3NC2=O)o1 [Example 472] | > 800 |  | 
COCCNc1sc(C(F)(F)F)nc1-c1nnc(N[C@H]2N=C(c3ccccc3)c3ccccc3NC2=O)o1 [Example 473] | < 400 |  | 
O=C1Nc2ccccc2C(c2ccccc2)=N[C@@H]1Nc1nnc(-c2nc(C(F)(F)F)sc2N[C@@H]2CCOC2)o1 [Example 474] | < 400 |  | 
O=C1Nc2ccccc2C(c2ccccc2)=N[C@@H]1Nc1nnc(-c2nc(C(F)(F)F)sc2NCC2COC2)o1 [Example 475] | 400 to 800 |  | 
O=C1Nc2ccccc2C(c2ccccc2)=N[C@@H]1Nc1nnc(-c2oc3cc(F)ccc3c2N2CCOCC2)o1 [Example 476] | 400 to 800 |  | 
O=C1Nc2ccccc2C(c2ccccc2)=N[C@@H]1Nc1nnc(-c2oc3cccc(F)c3c2N2CCOCC2)o1 [Example 477] | < 400 |  | 
CC1(c2nc(-c3nnc(N[C@H]4N=C(c5ccccc5)c5ccccc5NC4=O)o3)c(N3CCOCC3)s2)CCC1 [Example 478] | < 400 |  | 
COCCCc1sc(C)nc1-c1nnc(N[C@H]2N=C(c3ccccc3)c3ccccc3NC2=O)o1 [Example 479] | > 800 |  | 
COC[C@@H]1C[C@H]1c1cc(C(F)(F)F)cnc1-c1nnc(N[C@@H]2N=C(c3ccccc3)c3ccccc3NC2=O)o1 [Example 481] |  |  | > 800
COC[C@H]1C[C@@H]1c1cc(C(F)(F)F)cnc1-c1nnc(N[C@H]2N=C(c3ccccc3)c3ccccc3NC2=O)o1 [Example 482] |  |  | > 800
COC[C@H]1C[C@@H]1c1cc(C(F)(F)F)cnc1-c1nnc(N[C@@H]2N=C(c3ccccc3)c3ccccc3NC2=O)o1 [Example 483] |  |  | > 800
O=C1Nc2ccccc2C(c2ccccc2)=N[C@@H]1Nc1nnc(-c2cn(CC(F)(F)F)nc2N2CCOCC2)o1 [Example 488] |  |  | < 400
O=C1Nc2ccccc2C(c2ccccc2)=N[C@H]1Nc1nnc(-c2cn(CC(F)(F)F)nc2N2CCOCC2)o1 [Example 489] |  |  | > 800
O=C1Nc2ccccc2C(c2ccccc2)=N[C@@H]1Nc1nnc(-c2nc(C3(C(F)(F)F)CCC3)sc2N2CCOCC2)o1 [Example 490] | < 400 |  | 
